Ends that are not written are not given here.
Key:
Format in all cases: in vivo, human
[1] = test system: latent TGFβ binding protein 4 (LTBP-4) gene; test: Gene array analysis of PBMCs of trial patients; conditions: SEQ ID NO: 1 responders (FIG. 14A)
[2] = test system: peripheral blood mononuclear cells (PBMCs); test: Immune deviation in PBMCs of trial patients (cytokine production, PD-1 expression); conditions: for production of interleukin 10 (IL-10) / production of tumor necrosis factor α (TNFα): PBMCs / T cell subset of treated patients; for expression of Programmed Death 1 (PD-1) in PBMC: clinical responders, data not shown
Protocol: The model employed here is based on the hypothesis that immune tolerization to a T-cell epitope, such as SEQ ID NO. 1 that may be a contributor of inflammation in patients with rheumatoid arthritis, may lead to detectable clinical improvement. A total of 96 patients with early rheumatoid arthritis, who were not allowed on Methotrexate or biologics, were tested with mucosal tolerization to SEQ ID NO. 1. Patients are defined as “responders” if they meet the response criteria at any time during the study. […] SEQ ID NO.
1 (herein dubbed clinical responders) was observed (data not shown). PD-1 was first described as a contributor to T-cell anergy and exhaustion in chronic viral infections and cancer.
It is established that SEQ ID NO: 1 treatment was associated with an immune deviation in the T cell subset characterized by a decrease and an increase in tumor necrosis factor α (TNFα) and IL-10, respectively.

[3] = test system: regulatory T cell (Treg) (CD4+CD25++CD127−); test: Treg frequency in PBMC of trial patients by FACS
Protocol: (§1) FIG. 3. Effector and regulatory T cell function differ according to clinical response: a. effector T cells (Teff) (CD4+CD127+) at beginning of the trial (TO) and end of the study (Tend) were compared for PD-1 expression in both SEQ ID NO. 1 clinical responders and placebo clinical non-responders by FACS. b. FACS-sorted Teffwere analyzed for IL-17 and for RORC. Teff were stained intracellularly with IL-17A, and analyzed by FACS. c. regulatory T cell (Treg) (CD4+CD25++CD127−) frequency (% of PBMC) was determined in SEQ ID NO. 1—treated clinical responders by FACS. […] Values are the mean and s.e.m. d. Treg functionality in SEQ ID NO. […] (placebo clinical non-responders vs SEQ ID NO. 1 clinical responders, —76.21+/−3.665 vs 8.443+/−4.677, n=2 vs 3, t-test p0.0010). Values are the mean and s.e.m.
It is not detected in clinical responders a change in frequency of CD4+/CD25++/CD127-Treg between beginning and end of the trial (FIG. 3c). A highly significant difference between treatment responders and placebo non-responders was found in the suppressive ability of Treg at the end of the trial (FIG. 3d). This difference indicates a restoration of Treg functionality in clinical responders to treatment with SEQ ID NO. 1 (FIG. 3d and Sa).
Successful treatment with SEQ ID NO: 1 therefore induced an immune deviation of Teff cells by reducing their ability to produce pro-inflammatory cytokines. […]

[4] = test system: effector T cells (Teff) (CD4+CD127+); test: Gene expression in FACS-sorted Teff of trial patients (TaqMan)
Protocol: as §1
(§2) In FIG. 3b Y axis: % net change between Tend and T0 for both Teff producing IL-17A (first two columns, measured by FACS) and RORC expression (measured by TaqMan). […] Results were analyzed as a percentage of GAPDH. […] Values are the mean and s.e.m.
Successful treatment with SEQ ID NO: 1 therefore induced an immune deviation of Teff cells by reducing their ability to produce pro-inflammatory cytokines. An increase in the number of Treg cells could be one possible explanation for this observation.

[5] = test system: patients with early rheumatoid arthritis; test: Phase II trial of mucosal tolerization to SEQ ID NO. 1: clinical outcome
Protocol: The model employed here is based on the hypothesis that immune tolerization to a T-cell epitope, such as SEQ ID NO. 1 that may be a contributor of inflammation in patients with rheumatoid arthritis, may lead to detectable clinical improvement. A total of 96 patients with early rheumatoid arthritis, who were not allowed on Methotrexate or biologics, were tested with mucosal tolerization to SEQ ID NO. 1. Patients are defined as “responders” if they meet the response criteria at any time during the study. […] SEQ ID NO. […]

[6] = test system: effector T cells (Teff) (CD4+CD127+); test: FACS of effector T cells of trial patients (PD-1, intracellular IL-17A, IL-23 receptor)
Protocol: as §1
Therefore, a first hypothesis to test here is whether CD4+/CD127+T effector (Teff) cell anergy was induced by treatment with SEQ ID NO. 1. […] In addition, Teff were able to proliferate to conventional polyclonal stimuli (data not shown).
Further analysis of Teff in SEQ ID NO. […] Conversely, an increased expression in IL-17A expression was detected in placebo—treated clinical non-responders. […] 1 induced an immune deviation of Teff with a reduction in the ability to produce pro-inflammatory cytokines.
as §2

[7] = test system: CD4+FoxP3+Tregs and CD4+CD45RO+memory T cells; test: Cluster analysis and manual gating of Treg and memory T cell compartments of trial patients
Excerpt: Cluster analysis of the immune profiles of healthy individuals and rheumatoid arthritis patients reveal profound perturbations in the various immune cell compartments (FIG. 8). Immune tolerization achieved with SEQ ID NO: 1 treatment reshapes the immunomes of rheumatoid patients (FIG. 8B). The underlying immunological mechanisms behind immune tolerization was investigated by utilising staining panels for surface and activation markers on T cells (FIG. 13).
Immune phenotypes enriched in this cell subset of SEQ ID NO: 1 responders were memory T cells displaying activation and tolerogenic characteristics (FIG. 11B).

[8] = responders, end of the treatment regime (FIG. 9A)

QKRAAYDQYGHAAFE-NH2 [SEQ ID NO. 1]
expression of latent TGFβ binding protein 4 (LTBP-4) gene in PBMCs [1]: marginal upregulation
production of interleukin 10 (IL-10) [2]: increased production
production of tumor necrosis factor α (TNFα) [2]: decreased production
production of interleukin 10 (IL-10) ([2]; listed as SEQ ID NO: 1): increase
production of tumor necrosis factor α (TNFα) ([2]; listed as SEQ ID NO: 1): decrease
expression of Programmed Death 1 (PD-1) in PBMC [2]: significantly higher expression
expression of Programmed Death 1 (PD-1) in PBMC ([2]; listed as SEQ ID NO: 1): significantly higher levels
change of frequency of Tregs between beginning and end of the trial ([3]; FIG. 9B): did not change
Treg frequency in PBMC ([3]; clinical responders, Tend, T0 7.773+/−1.432, n=4, mean and s.e.m.): 7.610+/−1.519 % of PBMC
RORC gene expression in Teff ([4]; clinical responders, Tend, T0 3.382+/−0.684, mean and s.e.m.): 1.670+/−0.714 percentage of GAPDH
IFNγ expression in CD4+Teff cells [4, 8]: significantly lower levels
IL-17A expression in CD4+Teff cells [4, 8]: significantly lower levels
safety of mucosal tolerization ([5]; 96 patients with early rheumatoid arthritis): safe
clinical efficacy ([5]; 96 patients with early rheumatoid arthritis, no Methotrexate or biologics): comparable to the use of Methotrexate alone
joint pain ([5]; after treatment withdrawal (FIG. 11E)): Sustained improvements
joint swelling ([5]; after treatment withdrawal (FIG. 11F)): Sustained improvements
Physician global assessment scores ([5]; one month after clinical withdrawal, versus placebo (FIG. 11D)): performed better than placebo
IL-23 receptor expression in Teff ([6]; SEQ ID NO. 1-treated clinical responders, not shown): decrease
Intracellular IL-17A expression in Teff cells ([6]; clinical responders, Tend, T0 8.003+/−0.07839%, n=3, mean and s.e.m.): 4.873+/−0.6933%
% of PD-1+ in the total Teff population ([6]; clinical responders, end of trial (Tend), T0 6.312+/−1.428, n=5, mean+/−s.e.m.): 4.930+/−1.433%
percentage of CD4+FoxP3+Tregs expressing GITR, PD-1 and HLA-DR ([7]; SEQ ID NO: 1 responders versus placebo non-responders (FIG. 8E)): higher percentage
proportion of CD4+CD45RO+memory T cells activated and regulatory (CD69 and TGFβ expression) ([7]; SEQ ID NO: 1 responders versus placebo non-responders (FIG. 11C)): larger proportion

Source: US20240287136A1, “PHARMACEUTICAL COMPOSITION AND THE USE THEREOF IN THE TREATMENT OF AUTOIMMUNE DISEASES” (Singapore Health Services Pte. Ltd., priority 2016, published 2024)
